Reference: the supplement of paper PMC10733146

Experiments:
Test in all cases: viability relative to DMSO control (fraction); higher = less drug effect (more viable cells)
Details in all cases: 48 h
[1] = tested on: primary AML patient cells (S056)
How it was run: (§1)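 Viability was quantified by CellTiter-Glo luminescence and related to the median of 16 inner DMSO wells. Before that, primary mononuclear tumour cells, fresh or cryopreserved and Ficoll-isolated from blood or bone marrow or prepared from processed lymph node, were plated at 4 × 10^4 cells per well in 384-well plates containing pre-plated compounds at five concentrations, one well each. Plates were incubated in RPMI-1640 with penicillin/streptomycin, L-glutamine and human serum at 37 °C and 5% CO2 for 48 h.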

[2] = tested on: primary AML patient cells (S091)
How it was run: as §1

[3] = tested on: primary AML patient cells (S089)
How it was run: as §1

[4] = tested on: primary DLBCL patient cells (S082)
How it was run: as §1

[5] = tested on: primary AML patient cells (S037)
How it was run: as §1

[6] = tested on: primary FL patient cells (S022)
How it was run: as §1

[7] = tested on: primary CLL patient cells (S031)
How it was run: as §1

[8] = tested on: primary AML patient cells (S009)
How it was run: as §1

[9] = tested on: primary MCL patient cells (S053)
How it was run: as §1

[10] = tested on: primary T-PLL patient cells (S008)
How it was run: as §1

[11] = tested on: primary AML patient cells (S055)
How it was run: as §1

[12] = tested on: primary MCL patient cells (S063)
How it was run: as §1

[13] = tested on: primary AML patient cells (S072)
How it was run: as §1

[14] = tested on: primary ALL patient cells (S048)
How it was run: as §1

[15] = tested on: primary AML patient cells (S006)
How it was run: as §1

[16] = tested on: primary AML patient cells (S012)
How it was run: as §1

[17] = tested on: primary FL patient cells (S087)
How it was run: as §1

[18] = tested on: primary MCL patient cells (S068)
How it was run: as §1

[19] = tested on: primary AML patient cells (S079)
How it was run: as §1

[20] = tested on: primary MCL patient cells (S041)
How it was run: as §1

`COc1cccc2c1C(=O)c1c(O)c3c(c(O)c1C2=O)C[C@@](O)(C(C)=O)C[C@@H]3O[C@H]1C[C@H](N)[C@H](O)[C@H](C)O1` [Daunorubicin] showed a viability ([1]; 0.0016 µM) of 0.96, a viability ([1]; 0.008 µM) of 0.881 and a viability ([1]; 0.04 µM) of 0.258. It also gave a viability ([1]; 0.2 µM) of 0.146, a viability ([1]; 1 µM) of 0.0683 and a viability ([2]; 0.0016 µM) of 0.998. The viability ([2]; 0.008 µM) was 0.777, the viability ([2]; 0.04 µM) was 0.515 and the viability ([2]; 0.2 µM) was 0.558. It also gave a viability ([2]; 1 µM) of 0.0819, a viability ([3]; 0.0016 µM) of 1.09 and a viability ([3]; 0.008 µM) of 1.16. It also gave a viability ([3]; 0.04 µM) of 0.289, a viability ([3]; 0.2 µM) of 0.132 and a viability ([3]; 1 µM) of 0.0299. It also gave a viability ([4]; 0.0016 µM) of 1.1, a viability ([4]; 0.008 µM) of 1.07 and a viability ([4]; 0.04 µM) of 0.838. For the same molecule, the viability ([4]; 0.2 µM) was 0.714, the viability ([4]; 1 µM) was 0.0208 and the viability ([5]; 0.0016 µM) was 1.06. The viability ([5]; 0.008 µM) was 1.02, the viability ([5]; 0.04 µM) was 0.709 and the viability ([5]; 0.2 µM) was 0.565. The viability ([5]; 1 µM) was 0.368, the viability ([6]; 0.0016 µM) was 0.966 and the viability ([6]; 0.008 µM) was 0.964. For the same molecule, the viability ([6]; 0.04 µM) was 0.803, the viability ([6]; 0.2 µM) was 0.331 and the viability ([6]; 1 µM) was 0.304. For the same molecule, the viability ([7]; 0.0016 µM) was 0.982, the viability ([7]; 0.008 µM) was 0.809 and the viability ([7]; 0.04 µM) was 0.265. It also gave a viability ([7]; 0.2 µM) of 0.0431, a viability ([7]; 1 µM) of 0.0162 and a viability ([8]; 0.0016 µM) of 1.1. For the same molecule, the viability ([8]; 0.008 µM) was 0.833, the viability ([8]; 0.04 µM) was 0.722 and the viability ([8]; 0.2 µM) was 0.378. The viability ([8]; 1 µM) was 0.0702, the viability ([9]; 0.0016 µM) was 1.12 and the viability ([9]; 0.008 µM) was 0.692. For the same molecule, the viability ([9]; 0.04 µM) was 0.363, the viability ([9]; 0.2 µM) was 0.307 and the viability ([9]; 1 µM) was 0.446. It also gave a viability ([10]; 0.0016 µM) of 1.08, a viability ([10]; 0.008 µM) of 1.09 and a viability ([10]; 0.04 µM) of 0.947. The viability ([10]; 0.2 µM) was 0.82, the viability ([10]; 1 µM) was 0.0568 and the viability ([11]; 0.0016 µM) was 1.03. It also gave a viability ([11]; 0.008 µM) of 1.05, a viability ([11]; 0.04 µM) of 0.991 and a viability ([11]; 0.2 µM) of 0.904. It also gave a viability ([11]; 1 µM) of 0.0407, a viability ([12]; 0.0016 µM) of 1.2 and a viability ([12]; 0.008 µM) of 1.14. For the same molecule, the viability ([12]; 0.04 µM) was 0.979, the viability ([12]; 0.2 µM) was 0.528 and the viability ([12]; 1 µM) was 0.0178. It also gave a viability ([13]; 0.0016 µM) of 1.18, a viability ([13]; 0.008 µM) of 1.04 and a viability ([13]; 0.04 µM) of 0.844. For the same molecule, the viability ([13]; 0.2 µM) was 0.589, the viability ([13]; 1 µM) was 0.0642 and the viability ([14]; 0.0016 µM) was 1.02. The viability ([14]; 0.008 µM) was 0.731, the viability ([14]; 0.04 µM) was 0.12 and the viability ([14]; 0.2 µM) was 0.0694. For the same molecule, the viability ([14]; 1 µM) was 0.0144, the viability ([15]; 0.0016 µM) was 1.19 and the viability ([15]; 0.008 µM) was 0.923. The viability ([15]; 0.04 µM) was 0.248, the viability ([15]; 0.2 µM) was 0.075 and the viability ([15]; 1 µM) was 0.0282. For the same molecule, the viability ([16]; 0.0016 µM) was 1, the viability ([16]; 0.008 µM) was 1.01 and the viability ([16]; 0.04 µM) was 0.968. The viability ([16]; 0.2 µM) was 0.922, the viability ([16]; 1 µM) was 0.083 and the viability ([17]; 0.0016 µM) was 1.13. The viability ([17]; 0.008 µM) was 1.03, the viability ([17]; 0.04 µM) was 0.856 and the viability ([17]; 0.2 µM) was 0.693. The viability ([17]; 1 µM) was 0.588, the viability ([18]; 0.0016 µM) was 1.18 and the viability ([18]; 0.008 µM) was 0.943. For the same molecule, the viability ([18]; 0.04 µM) was 0.449, the viability ([18]; 0.2 µM) was 0.252 and the viability ([18]; 1 µM) was 0.0233. For the same molecule, the viability ([19]; 0.0016 µM) was 1.03, the viability ([19]; 0.008 µM) was 1.08 and the viability ([19]; 0.04 µM) was 0.78. It also gave a viability ([19]; 0.2 µM) of 0.659, a viability ([19]; 1 µM) of 0.0276 and a viability ([20]; 0.0016 µM) of 1.16. The viability ([20]; 0.008 µM) was 1.11, the viability ([20]; 0.04 µM) was 0.931 and the viability ([20]; 0.2 µM) was 0.323. The viability ([20]; 1 µM) was 0.0341.

For `CCc1nc(C(N)=O)c(Nc2ccc(N3CCC(N4CCN(C)CC4)CC3)c(OC)c2)nc1NC1CCOCC1` [Gilteritinib], the viability ([1]; 0.024 µM) was 0.404, the viability ([1]; 0.12 µM) was 0.385 and the viability ([1]; 0.6 µM) was 0.339. For the same molecule, the viability ([1]; 3 µM) was 0.497, the viability ([1]; 15 µM) was 0.644 and the viability ([2]; 0.024 µM) was 0.859. The viability ([2]; 0.12 µM) was 0.734, the viability ([2]; 0.6 µM) was 0.238 and the viability ([2]; 3 µM) was 0.122. It also gave a viability ([2]; 15 µM) of 0.0937, a viability ([3]; 0.024 µM) of 0.956 and a viability ([3]; 0.12 µM) of 0.552. It also gave a viability ([3]; 0.6 µM) of 0.512, a viability ([3]; 3 µM) of 0.379 and a viability ([3]; 15 µM) of 0.311. For the same molecule, the viability ([4]; 0.024 µM) was 1.14, the viability ([4]; 0.12 µM) was 0.761 and the viability ([4]; 0.6 µM) was 0.409. For the same molecule, the viability ([4]; 3 µM) was 0.459, the viability ([4]; 15 µM) was 0.476 and the viability ([5]; 0.024 µM) was 1.06. For the same molecule, the viability ([5]; 0.12 µM) was 1.02, the viability ([5]; 0.6 µM) was 0.875 and the viability ([5]; 3 µM) was 0.9. For the same molecule, the viability ([5]; 15 µM) was 0.738, the viability ([6]; 0.024 µM) was 1.01 and the viability ([6]; 0.12 µM) was 0.925. It also gave a viability ([6]; 0.6 µM) of 0.907, a viability ([6]; 3 µM) of 0.789 and a viability ([6]; 15 µM) of 0.358. For the same molecule, the viability ([7]; 0.024 µM) was 1.13, the viability ([7]; 0.12 µM) was 1 and the viability ([7]; 0.6 µM) was 0.785. The viability ([7]; 3 µM) was 0.791, the viability ([7]; 15 µM) was 0.188 and the viability ([8]; 0.024 µM) was 0.945. For the same molecule, the viability ([8]; 0.12 µM) was 0.865, the viability ([8]; 0.6 µM) was 0.9 and the viability ([8]; 3 µM) was 0.675. The viability ([8]; 15 µM) was 0.986, the viability ([9]; 0.024 µM) was 1.07 and the viability ([9]; 0.12 µM) was 1.02. It also gave a viability ([9]; 0.6 µM) of 0.7, a viability ([9]; 3 µM) of 0.707 and a viability ([9]; 15 µM) of 0.733. The viability ([10]; 0.024 µM) was 0.952, the viability ([10]; 0.12 µM) was 0.909 and the viability ([10]; 0.6 µM) was 0.886. For the same molecule, the viability ([10]; 3 µM) was 0.787, the viability ([10]; 15 µM) was 0.935 and the viability ([11]; 0.024 µM) was 1.04. For the same molecule, the viability ([11]; 0.12 µM) was 1.03, the viability ([11]; 0.6 µM) was 0.573 and the viability ([11]; 3 µM) was 0.638. For the same molecule, the viability ([11]; 15 µM) was 0.821, the viability ([12]; 0.024 µM) was 1.11 and the viability ([12]; 0.12 µM) was 1.13. For the same molecule, the viability ([12]; 0.6 µM) was 0.706, the viability ([12]; 3 µM) was 0.42 and the viability ([12]; 15 µM) was 0.209. It also gave a viability ([13]; 0.024 µM) of 0.983, a viability ([13]; 0.12 µM) of 0.882 and a viability ([13]; 0.6 µM) of 0.54. It also gave a viability ([13]; 3 µM) of 0.368, a viability ([13]; 15 µM) of 0.285 and a viability ([14]; 0.024 µM) of 0.876. The viability ([14]; 0.12 µM) was 0.819, the viability ([14]; 0.6 µM) was 0.646 and the viability ([14]; 3 µM) was 0.717. For the same molecule, the viability ([14]; 15 µM) was 0.531, the viability ([15]; 0.024 µM) was 0.393 and the viability ([15]; 0.12 µM) was 0.381. For the same molecule, the viability ([15]; 0.6 µM) was 0.382, the viability ([15]; 3 µM) was 0.729 and the viability ([15]; 15 µM) was 0.563. For the same molecule, the viability ([16]; 0.024 µM) was 0.956, the viability ([16]; 0.12 µM) was 0.97 and the viability ([16]; 0.6 µM) was 1. For the same molecule, the viability ([16]; 3 µM) was 0.972, the viability ([16]; 15 µM) was 0.928 and the viability ([17]; 0.024 µM) was 1.09. The viability ([17]; 0.12 µM) was 1.06, the viability ([17]; 0.6 µM) was 0.865 and the viability ([17]; 3 µM) was 0.807. It also gave a viability ([17]; 15 µM) of 0.422, a viability ([18]; 0.024 µM) of 1.63 and a viability ([18]; 0.12 µM) of 2. The viability ([18]; 0.6 µM) was 1.89, the viability ([18]; 3 µM) was 1.27 and the viability ([18]; 15 µM) was 0.689. For the same molecule, the viability ([19]; 0.024 µM) was 1.26, the viability ([19]; 0.12 µM) was 0.887 and the viability ([19]; 0.6 µM) was 0.735. It also gave a viability ([19]; 3 µM) of 0.626, a viability ([19]; 15 µM) of 0.469 and a viability ([20]; 0.024 µM) of 0.934. For the same molecule, the viability ([20]; 0.12 µM) was 0.882, the viability ([20]; 0.6 µM) was 0.705 and the viability ([20]; 3 µM) was 0.647. For the same molecule, the viability ([20]; 15 µM) was 0.406.
